Values of other authors, collected in patent publication US9192596B2, “Self-emulsifying pharmaceutical compositions of rhein or diacerein” (WOCKHARDT RESEARCH CENTRE, priority 2007, dated 2015).
Counter-ions that a name gives are not always drawn.

Experiments:
[1] = inherent pharmacokinetic property; rhein-glucuronide converted to rhein-9-anthrone in colon
[2] = not given; remark: listed apart in the source

Row | solubility in water (EP 243,968) | soft stool effect expected due to enterohepatic circulation [1] | solubility (water, alcohols, acetone, dichloromethane and chloroform) | pKa [2] | Structure (SMILES) | stability ([2]; acidic and alkaline conditions)
1 | water-soluble | – | – | – | CC(=O)Oc1cccc2c1C(=O)c1c(OC(C)=O)cc(C(=O)O)cc1C2=O [potassium salt of diacerein] | –
2 | – | 30-40% | practically insoluble | 4.5 | CC(=O)Oc1cccc2c1C(=O)c1c(OC(C)=O)cc(C(=O)O)cc1C2=O [diacerein, 4,5-bis(acetyloxy) 9,10-dihydro-4,5-dihydroxy-9,10-dioxo-2-anthracenecarboxylic acid] | instability under acidic and alkaline conditions
